From the supplement of paper PMC5579334
± gives the standard deviation of the averaged measurements.

Legend:
ST8814 [1] = test: drug sensitivity score (DSS, CellTox-Green cytotoxicity, 72 h) (DSS (dimensionless)); higher = more cytotoxic; extreme values may be limits of the assay
Outline: (§1)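 MPNST cell lines and primary human Schwann cells were grown for 72 h at 37 °C in 384-well plates containing five 10-fold compound dilutions. CellTox-Green, added before seeding at a final 1:1000 dilution, gave fluorescence from DNA released by disrupted cells, and signals were scaled to vehicle and positive-control wells. Curves were fitted with a four-parameter logistic model. Drug sensitivity score and relative IC50 come from these fits, with IC50 censored at the top concentration.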

HS-PSS [2] = test: as above
Outline: as §1

[3] = system: HSC2 (primary human Schwann cells); test: as above
Outline: as §1

[4] = system: HSC1 (primary human Schwann cells); test: as above
Outline: as §1

STS26T [5] = test: as above
Outline: as §1

S1507-2 [6] = test: as above
Outline: as §1

ST8814 [7] = test: % inhibition of CellTiter-Glo viability at highest tested concentration (72 h), relative to DMSO and benzethonium chloride controls; higher = more inhibition
Outline: (§2)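 Viability of MPNST cell lines and primary human Schwann cells was read as CellTiter-Glo ATP luminescence after 72 h at 37 °C, 5% CO2, in 384-well plates seeded with 750–1000 cells per well. Each compound had been preprinted at five concentrations in 10-fold steps. Signals were scaled between vehicle and positive-control wells, duplicates averaged where present, and fitted with four-parameter logistic curves. Drug sensitivity score and relative IC50 (censored at the top concentration) come from those fits, and percent inhibition is taken at the top concentration.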

HS-PSS [8] = test: as above
Outline: as §2

[9] = system: HSC2 (primary human Schwann cells); test: as above
Outline: as §2

HS-Sch-2 [10] = test: as above
Outline: as §2

[11] = system: HSC1 (primary human Schwann cells); test: as above
Outline: as §2

STS26T [12] = test: as above
Outline: as §2

S1507-2 [13] = test: as above
Outline: as §2

YST-1 [14] = test: as above
Outline: as §2

S462 [15] = test: as above
Outline: as §2

ST8814 [16] = test: drug sensitivity score (DSS, CellTiter-Glo viability, 72 h) (DSS (dimensionless)); higher = more sensitive; extreme values may be limits of the assay
Outline: as §2

HS-PSS [17] = test: as above
Outline: as §2

[18] = system: HSC2 (primary human Schwann cells); test: as above
Outline: as §2

HS-Sch-2 [19] = test: as above
Outline: as §2

[20] = system: HSC1 (primary human Schwann cells); test: as above
Outline: as §2

STS26T [21] = test: as above
Outline: as §2

S1507-2 [22] = test: as above
Outline: as §2

YST-1 [23] = test: as above
Outline: as §2

S462 [24] = test: as above
Outline: as §2

Row | SMILES | drug sensitivity score (ST8814 [1]) | drug sensitivity score (HS-PSS [2]) | drug sensitivity score [3] | drug sensitivity score [4] | drug sensitivity score (STS26T [5]) | drug sensitivity score (S1507-2 [6]) | % inhibition (ST8814 [7]) | % inhibition (HS-PSS [8]) | % inhibition [9] | % inhibition (HS-Sch-2 [10]) | % inhibition [11] | % inhibition (STS26T [12]) | % inhibition (S1507-2 [13]) | % inhibition (YST-1 [14]) | % inhibition (S462 [15]) | drug sensitivity score (ST8814 [16]) | drug sensitivity score (HS-PSS [17]) | drug sensitivity score [18] | drug sensitivity score (HS-Sch-2 [19]) | drug sensitivity score [20] | drug sensitivity score (STS26T [21]) | drug sensitivity score (S1507-2 [22]) | drug sensitivity score (YST-1 [23]) | drug sensitivity score (S462 [24])
1 | O=C(/C=C/c1cccnc1)NCCCCC1CCN(C(=O)c2ccccc2)CC1 [Daporinad] (max concentration tested 1000 nM) | 0 | 0 | 0 | 0 | 9.24 | 0 | 93.2% | 90.9% | 83.4% | 101% | 70.9% | 95.5% | 87.9 ± 6.3% | 101% | 100.3 ± 0.6% | 24.1 | 25 | 21.9 | 29.8 | 18.8 | 16.4 | 15.02 ± 0.15 | 31.1 | 28.6 ± 0.7
2 | Nc1ncn([C@H]2C[C@H](O)[C@@H](CO)O2)c(=O)n1 [Decitabine] (max concentration tested 10000 nM) | 0 | 0 | 0 | 0 | 0 | 0.342 ± 0.48 | 18.8% | 4.62% | 27.7% | 27.8% | 20.3% | 16.2% | 16.3 ± 5.8% | 4.17% | 37.4 ± 5.4% | 1.82 | 0 | 1.61 | 2.19 | 3.33 | 0.745 | 0.377 ± 0.53 | 0 | 4.99 ± 0.29
3 | CC[C@]1(O)C[C@H]2CN(CCc3c([nH]c4ccccc34)[C@@](C(=O)OC)(c3cc4c(cc3OC)N(C=O)[C@H]3[C@@](O)(C(=O)OC)[C@H](OC(C)=O)[C@]5(CC)C=CCN6CC[C@]43[C@@H]65)C2)C1 [Vincristine] (max concentration tested 1000 nM) | 24.3 | 0.55 | 12.1 | 8.67 | 36 | 13 ± 3 | 90.3% | 67.8% | 90.7% | 94% | 75.5% | 94.5% | 79.8 ± 1.9% | 81.9% | 95.45 ± 0.25% | 23.6 | 17 | 20.9 | 30.5 | 17.9 | 32.4 | 21.1 ± 0.68 | 26.7 | 28.88 ± 0.23
4 | Cn1cc(CNCC2CCN(c3ncc(C(=O)NO)cn3)CC2)c2ccccc21 [Quisinostat] (max concentration tested 1000 nM) | 13.8 | 6.33 | 7.35 | 7.77 | 9 | 17.2 ± 0.8 | 102% | 93.3% | 95.7% | 98.6% | 95.9% | 99.4% | 102.2 ± 0.95% | 99% | 103.4 ± 0.44% | 21 | 14.7 | 13.9 | 15.7 | 16 | 15.6 | 20.8 ± 1.1 | 24.2 | 20.6 ± 0.34
5 | CCc1cnn2c(NCc3ccc[n+]([O-])c3)cc(N3CCCC[C@H]3CCO)nc12 [Dinaciclib] (max concentration tested 1000 nM) | 5.45 | 5.02 | 7.57 | 5.96 | 14.8 | 2.29 ± 3.1 | 80.5% | 84.2% | 86.4% | 101% | 83.5% | 92.7% | 76.6 ± 1.6% | 99.5% | 90.8 ± 2.7% | 15 | 21 | 19.9 | 25.1 | 16.9 | 21.6 | 15 ± 1.9 | 25.2 | 24.4 ± 0.71
6 | Cc1cc(C(C)Nc2ccccc2)c2nc(N3CCOCC3)cc(=O)n2c1 (configuration not stated) [TGX-221] (max concentration tested 10000 nM) | 0 | 0 | 0 | 0 | 0.376 | 0 | 21.4% | -2.49% | 6.57% | 12.3% | 16.5% | 41.7% | 28.4 ± 7.1% | 26.6% | 7.98 ± 6.7% | 1.34 | 0 | 0 | 0.19 | 0.168 | 4.31 | 3.32 ± 0.24 | 0.99 | 0.122 ± 0.17
7 | COc1ccc(C2=N[C@@H](c3ccc(Cl)cc3)[C@@H](c3ccc(Cl)cc3)N2C(=O)N2CCNC(=O)C2)c(OC(C)C)c1 [Nutlin-3] (max concentration tested 10000 nM) | 0.0128 | 0 | 0 | 0 | 0 | 1.97 ± 2.8 | 59.7% | 24.9% | 71.8% | 1.38% | 62.4% | 12.2% | 7.98 ± 12% | 94.8% | 5.05 ± 4.8% | 4.66 | 1.69 | 7.69 | 0 | 5.97 | 0.0084 | 0.283 ± 0.4 | 9.36 | 0
8 | O=[N+]([O-])c1ccc2c(c1)S(=O)(=O)C=C2 [Stattic] (max concentration tested 50000 nM) | 7.96 | 12.8 | 9.26 | 15.6 | 12 | 5.93 ± 1.3 | 94.6% | 101% | 98.3% | 100% | 98.5% | 95.6% | 95.7 ± 1.3% | 101% | 96.03 ± 0.43% | 14.9 | 18.7 | 13.9 | 18.6 | 16.8 | 13.7 | 7.88 ± 2.4 | 17.4 | 11.3 ± 3.2
9 | CNCc1ccc(-c2[nH]c3cc(F)cc4c3c2CCNC4=O)cc1 [Rucaparib] (max concentration tested 10000 nM) | 0 | 0 | 0 | 0 | 0 | 3.1 ± 4.4 | 4.21% | 30.1% | 8.78% | 22.2% | 4.91% | 4.71% | -0.362 ± 7.1% | 60.9% | 27.7 ± 9% | 0 | 2.72 | 0 | 1.1 | 0 | 0 | 0 | 8.59 | 2.11 ± 0.82
10 | Oc1ncnc2[nH]ncc12 [Allopurinol] (max concentration tested 10000 nM) | 0 | 0 | 0 | 0 | 0 | 0 | -3.79% | 6.72% | 1.63% | 8.43% | 5.09% | 6.65% | -4.6 ± 1.9% | 8.22% | -1.67 ± 0.31% | 0 | 0 | 0 | 0 | 0 | 0 | 0 | 0 | 0
11 | CNC(=O)c1cccc(-c2ccc3c(N4CCOC[C@@H]4C)nc(N4CCOC[C@@H]4C)nc3n2)c1 [AZD2014] (max concentration tested 10000 nM) | 0 | 0 | 0 | 0 | 0 | 0 | 78.5% | 69.8% | 87.1% | 71% | 87.4% | 75.4% | 75.49 ± 0.4% | 79.2% | 66.2 ± 1.5% | 10.7 | 10.4 | 15 | 11.7 | 15.2 | 12 | 12.6 ± 1 | 17.9 | 11.1 ± 0.51
12 | COc1cc2ncnc(Nc3ccc(F)c(Cl)c3)c2cc1NC(=O)/C=C/CN1CCCCC1 [Dacomitinib] (max concentration tested 1000 nM) | 0 | 1.85 | 0 | 0 | 0 | 1.18 ± 1.6 | 16.4% | 35.4% | 19.3% | 32.6% | 12.1% | 13.6% | 24.7 ± 9.1% | 9.37% | 7.49 ± 5.3% | 0.993 | 3 | 0.456 | 2.81 | 0.027 | 0.0007 | 1.41 ± 1.5 | 0 | 0.0398 ± 0.056
13 | CCOC(=O)CCNc1cc(N2CCc3ccccc3CC2)nc(-c2ccccn2)n1 [GSK-J4] (max concentration tested 100000 nM) | 6.13 | 4.79 | 7.09 | 7.1 | 8.17 | 3.11 ± 4.4 | 97.1% | 99.4% | 96.5% | 99% | 95.8% | 96.1% | 97.2 ± 1.9% | 100% | 95.2 ± 0.48% | 14.1 | 14.4 | 15.2 | 15.9 | 14.8 | 14.6 | 13.4 ± 0.92 | 16.3 | 16.3 ± 0.36
